Measured values taken from PubChem BioAssay (NCI).
Several values for one entry are separate records, joined by “and”; a condition that tells them apart may be missing. Identical values can stand only once.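 A five-concentration, 48-hour dose response in 96-well plates underlies each endpoint, interpolated linearly between surrounding concentrations. GI50 marks 50% less growth. TGI: total growth inhibition.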

How the values were obtained:
Assay in all cases: NCI tumour cell line growth inhibition, 48 h
NCI-H226 lung = tested on: NCI-H226 lung
HOP-92 NSCLC = tested on: HOP-92 NSCLC
M14 melanoma = tested on: M14 melanoma
OVCAR-3 ovarian = tested on: OVCAR-3 ovarian
SNB-19 CNS = tested on: SNB-19 CNS
CCRF-CEM leukemia = tested on: CCRF-CEM leukemia
HL-60(TB) leukemia = tested on: HL-60(TB) leukemia
COLO 205 colon = tested on: COLO 205 colon
OVCAR-5 ovarian = tested on: OVCAR-5 ovarian
UACC-62 melanoma = tested on: UACC-62 melanoma

Compound	TGI (NCI-H226 lung) [µM]	TGI (HOP-92 NSCLC)	TGI (M14 melanoma)	TGI (OVCAR-3 ovarian)	TGI (SNB-19 CNS) [µM]	TGI (CCRF-CEM leukemia)	GI50 (HL-60(TB) leukemia)	TGI (HL-60(TB) leukemia)	TGI (COLO 205 colon)	TGI (OVCAR-5 ovarian)	TGI (UACC-62 melanoma)	GI50 (CCRF-CEM leukemia)	GI50 (OVCAR-5 ovarian)	GI50 (NCI-H226 lung)	GI50 (HOP-92 NSCLC)	GI50 (M14 melanoma) [µM]	GI50 (OVCAR-3 ovarian)	GI50 (SNB-19 CNS) [µM]	GI50 (COLO 205 colon) [µM]	GI50 (UACC-62 melanoma) [µM]
CN(C)c1nc(=NCc2ccncc2)ss1	> 100	> 100 µM	36.1 µM	> 82.3 µM	> 100	49.6 µM	14.2 µM	47 µM	> 100 µM	54.4 µM	> 48.1 µM	–	–	–	–	–	–	–	–	–
C=C(Cl)/C(=C\Cl)CCC(Br)C(C)C (stereo unspecified)	> 100	> 100 µM	> 100 µM	> 100 µM	> 100	> 100 µM	–	> 100 µM	> 100 µM	> 100 µM	> 100 µM	–	–	–	–	–	–	–	–	–
COc1cccc(-c2cc(=O)c3c(C)cc(C)nc3[nH]2)c1	9.09	> 85 µM	> 100 µM	0.652 µM	> 100	2.87 µM	–	0.505 µM	0.637 µM	> 100 µM	> 100 µM	–	–	–	–	–	–	–	–	–
O=C1c2ccccc2CN1c1ccc(O)cc1	> 100	> 100 µM	> 100 µM	> 100 µM	> 100	> 100 µM	–	> 100 µM	> 100 µM	> 100 µM	> 100 µM	–	–	–	–	–	–	–	–	–
CC(CC(C#N)(c1ccccc1)c1ccccc1)N1CCCCC1 (stereo unspecified)	46.4	> 100 µM	39.1 µM	44.5 µM	> 100	46.6 µM	–	42.3 µM	32.9 µM	> 100 µM	59.1 µM	–	–	–	–	–	–	–	–	–
C=C1[C@@H](O)C[C@@]23CC[C@@H]4[C@@]5(C)CC[C@@H](OC(C)=O)C(C)(C)[C@@H]5C[C@@H](OC5OC(COC(C)=O)C(O)C(O)C5O)[C@@]4(C)C2=CC[C@H]3[C@H]1C (stereo partly specified)	17.4	20.5 µM	16.4 µM	16.2 µM	17.5	9.82 µM	–	4.86 µM	4.36 µM	7.08 µM	20.5 µM	–	–	–	–	–	–	–	–	–
CC(=O)OC[C@]1(C(=O)C(O)c2ccoc2)[C@H](C)CC[C@@]23COC(=O)C2=CCC[C@@H]31 (stereo partly specified)	> 10	> 10 µM	> 10 µM	> 10 µM	> 10	> 10 µM	–	> 10 µM	> 10 µM	> 10 µM	> 10 µM	–	–	–	–	–	–	–	–	–
Cc1ccc(S(=O)(=O)Oc2cc(N)c3c(n2)CCC3)cc1	> 100	> 100 µM	> 100 µM	> 100 µM	> 100	> 100 µM	–	> 100 µM	> 100 µM	> 100 µM	> 100 µM	–	–	–	–	–	–	–	–	–
CC(C)(C)N=c1n(C(C)(C)C)oc(=O)n1C(C)(C)C	> 100	> 100 µM	> 100 µM	> 100 µM	> 100	> 100 µM	–	> 100 µM	> 100 µM	> 100 µM	> 100 µM	–	–	–	–	–	–	–	–	–
O=C1NCCCc2nonc21	> 100	> 100 µM	> 100 µM	> 100 µM	> 100	> 100 µM	–	> 100 µM	> 100 µM	> 100 µM	> 100 µM	–	–	–	–	–	–	–	–	–
O=C(O)C1CC(c2ccc(F)cc2)=Nc2ccc(F)cc2S1 (stereo unspecified)	> 100	> 100 µM	> 100 µM	> 100 µM	> 100	> 100 µM	–	> 100 µM	> 100 µM	> 100 µM	> 100 µM	–	–	–	–	–	–	–	–	–
O=C1C(c2c(O)[nH]c3ccc(S(=O)(=O)O)cc23)=Nc2ccccc21	> 100	> 100 µM	> 100 µM	> 100 µM	> 100	> 100 µM	–	> 100 µM	> 100 µM	> 100 µM	> 100 µM	–	–	–	–	–	–	–	–	–
CC1(C)C(c2ccccc2)=[N+]([O-])C(C)(C)N1O	> 10	> 10 µM	> 10 µM	> 10 µM	> 10	> 10 µM	–	> 10 µM	> 10 µM	> 10 µM	> 10 µM	–	–	–	–	–	–	–	–	–
O=C(CN1CCCCC1)CC(O)(C(F)(F)F)C(F)(F)F	> 100	> 100 µM	> 100 µM	> 100 µM	> 100	> 100 µM	–	> 100 µM	> 100 µM	> 100 µM	> 100 µM	–	–	–	–	–	–	–	–	–
COc1cc2c(cc1OC)C1c3ccccc3CCN1CC2 (stereo unspecified)	96.1	> 100 µM	> 100 µM	> 100 µM	> 100	> 100 µM	–	80.3 µM	> 100 µM	> 100 µM	> 100 µM	–	–	–	–	–	–	–	–	–
CCNC(=O)Nc1ccccn1	> 100	> 100 µM	> 100 µM	> 100 µM	> 100	> 100 µM	–	> 100 µM	> 100 µM	> 100 µM	> 100 µM	–	–	–	–	–	–	–	–	–
CC1(C)O[C@@H]2COC(=O)[C@@H]2O1	> 100	> 100 µM	> 100 µM	> 100 µM	> 100	> 100 µM	–	> 100 µM	> 100 µM	> 100 µM	> 100 µM	–	–	–	–	–	–	–	–	–
O=C1CCSSCCC(=O)NCCN1	> 100	> 100 µM	> 100 µM	> 100 µM	> 100	> 100 µM	–	> 100 µM	> 100 µM	> 100 µM	> 100 µM	–	–	–	–	–	–	–	–	–

Compound	TGI (NCI-H226 lung) [µM]	TGI (HOP-92 NSCLC)	TGI (M14 melanoma)	TGI (OVCAR-3 ovarian)	TGI (SNB-19 CNS) [µM]	TGI (CCRF-CEM leukemia)	GI50 (HL-60(TB) leukemia)	TGI (HL-60(TB) leukemia)	TGI (COLO 205 colon)	TGI (OVCAR-5 ovarian)	TGI (UACC-62 melanoma)	GI50 (CCRF-CEM leukemia)	GI50 (OVCAR-5 ovarian)	GI50 (NCI-H226 lung)	GI50 (HOP-92 NSCLC)	GI50 (M14 melanoma) [µM]	GI50 (OVCAR-3 ovarian)	GI50 (SNB-19 CNS) [µM]	GI50 (COLO 205 colon) [µM]	GI50 (UACC-62 melanoma) [µM]
NC(CSCc1ccccc1)C(=O)O (stereo unspecified)	> 100	> 100 µM	> 100 µM	> 100 µM	> 100	> 100 µM	–	> 100 µM	> 100 µM	> 100 µM	> 100 µM	–	–	–	–	–	–	–	–	–
C/C(=N/NC(N)=S)c1ccc2ccccc2c1	> 100	> 100 µM	79.1 µM	> 100 µM	> 100	> 100 µM	–	> 100 µM	41.9 µM	86 µM	28.6 µM	–	–	–	–	–	–	–	–	–
C=C1C(=O)OC2/C=C(\CO)C(OC(C)=O)CC(O)/C(C)=C/C(OC(=O)C(C)CC)C12 (stereo unspecified)	59.6	35 µM and 63.2 µM	31.1 µM and 33.3 µM	33.4 µM and 30.6 µM	> 100	22.7 µM and 69 µM	–	39.6 µM and 30.9 µM	28.8 µM and 24.3 µM	> 92.8 µM and 32.2 µM	32.3 µM and 38 µM	3.76 µM and 11.4 µM	38.9 µM and 17 µM	–	–	–	–	–	–	–
CCC1=CCC23C(=O)C=CC(=O)C2(C1)C(=O)c1cccc(OC)c1C3=O (stereo unspecified)	67.2	29 µM	30.4 µM	27.2 µM	53.7	28.1 µM	–	7.36 µM	28.4 µM	31.8 µM	37.2 µM	–	–	–	–	–	–	–	–	–
O=c1c2ncn(C3CC(O)C(CO)O3)c2nnn1Cc1ccccc1[N+](=O)[O-] (stereo unspecified)	> 100	> 100 µM	> 100 µM	> 100 µM	> 100	> 100 µM	–	> 100 µM	> 100 µM	> 100 µM	> 100 µM	–	–	–	–	–	–	–	–	–
CCSC1=CC(=O)c2nc3ccccc3c3ccnc1c23	27.1	38.6 µM	6.15 µM	> 23.1 µM	> 87.1	> 25.9 µM	–	7.74 µM	> 32.8 µM	15 µM	4.32 µM	–	–	–	–	–	–	–	–	–
CSCCC(NCc1c(O)ccc2c(-c3ccccc3)cc(=O)oc12)C(=O)O (stereo unspecified)	> 100	> 100 µM	> 100 µM	> 100 µM	> 100	> 100 µM	–	> 100 µM	> 100 µM	> 100 µM	> 100 µM	–	–	–	–	–	–	–	–	–
O=C(O)[C@@H]1C[C@@H](O)CN1C(=O)OCc1ccccc1	> 100	> 100 µM	> 100 µM	> 100 µM	> 100	> 100 µM	–	> 100 µM	> 100 µM	> 100 µM	> 100 µM	–	–	–	–	–	–	–	–	–
CN(C)NC(=S)Nc1ccccc1Br	> 100	> 100 µM	> 100 µM	> 100 µM	> 100	> 100 µM	–	> 100 µM	> 100 µM	> 100 µM	> 100 µM	–	–	–	–	–	–	–	–	–
CCC(C(=O)O)c1ccc(OCc2ccccc2)cc1 (stereo unspecified)	> 100	> 100 µM	> 100 µM	> 100 µM	> 100	> 100 µM	–	> 100 µM	> 100 µM	> 100 µM	> 100 µM	–	–	–	–	–	–	–	–	–
COc1ccc2c(c1)O/C(=C\c1cccc(OCC(=O)Nc3nc4c(s3)CCCC4)c1)C2=O	> 100	18.5 µM	> 100 µM	7.63 µM	> 100	7.79 µM	3.32 µM	18.5 µM	> 100 µM	> 78.8 µM	> 100 µM	2.07 µM	> 40.6 µM	> 100 µM	3.68 µM	> 100	2.98 µM	44.6	> 100	> 46.2
COc1cc2c(cc1OCCCCOc1cc(-c3ccc(F)cc3)nc(C)n1)N=C[C@@H]1CCCN1C2=O	4.71	6.18 µM	1.87 µM	2.66 µM	4.75	3.17 µM	–	28.7 µM	1.17 µM	10.9 µM	1.28 µM	–	–	–	–	–	–	–	–	–
CCN(CC)CCNc1ccc2nnn3c4ccc(OC)cc4c(=O)c1c23	20	19.5 µM	23.5 µM	31.4 µM	25.9	32.7 µM	–	22.3 µM	20.4 µM	23.7 µM	25.7 µM	–	–	–	–	–	–	–	–	–
CSC1CC2C(CC1(C)O)C2(C)C (stereo unspecified)	> 100	> 100 µM	> 100 µM	> 100 µM	> 100	> 100 µM	19 µM and > 100 µM	70.5 µM and > 100 µM	> 100 µM	> 100 µM	> 100 µM	49.3 µM and > 100 µM	–	38.5 µM and > 100 µM	25.5 µM and > 100 µM	–	38.5 µM and > 100 µM	–	–	–
CC(C)(C)C1=Cc2cc3cc(C(C)(C)C)[nH]c(=O)c3cc2S(=O)(=O)N1	47.7	39.3 µM	29.7 µM	59.3 µM	> 100	56.9 µM	–	43.1 µM	39.9 µM	92.5 µM	42 µM	–	–	–	–	–	–	–	–	–
Cc1ccccc1OC(C)C(=O)NN1C(=O)CC(=O)N(c2ccc(Cl)cc2)C1=S (stereo unspecified)	> 100	56.1 µM	> 100 µM	> 100 µM	> 100	57 µM	–	39.8 µM	68.3 µM	> 100 µM	> 100 µM	–	–	–	–	–	–	–	–	–
CC(C)(C)NC(=O)[C@H]1CC[C@H]2[C@@H]3CC=C4NC(=O)CC[C@]4(C)[C@H]3CC[C@]12C	> 100	> 100 µM	> 100 µM	> 100 µM	> 100	> 100 µM	–	> 100 µM	> 100 µM	> 100 µM	> 100 µM	–	–	–	–	–	–	–	–	–
C=C1C(O)C2(O)OCC34C(CC5C(C)=CC(=O)C(O)C5(C)C23)OC(=O)C(OC(=O)C/C=C(\C)CCCCC)C14 (stereo unspecified)	–	0.00664 µM and 0.0195 µM and 0.0234 µM	0.00141 µM	< 0.001 µM	–	–	< 0.001 µM	–	0.00812 µM and 0.0206 µM and 0.0272 µM	–	–	< 0.001 µM	0.0022 µM	< 0.001 µM	0.00157 µM	–	< 0.001 µM	< 0.001	0.00123	< 0.001
